Reference: ChEMBL document CHEMBL5380876, “Non-fused imidazole-biphenyl analogs repress triple-negative breast cancer growth by mainly stabilizing the c-MYC G-quadruplex via a multi-site binding mode” (Bioorg Med Chem, 2023)
The source made the active and inactive calls. No cut-off for these calls is given here.

Columns and labels:
[1] = tested on: MDA-MB-231; assay: Inhibition of cell migration in human MDA-MB-231 cells assessed as reduction in migration at 1 to 4 uM measured after 24 hrs by transwell migration assay; type: functional, cell-based; conditions: dose 1-4 µM
[2] = tested on: MDA-MB-231; assay: Upregulation of phosphorylated ATM in human MDA-MB-231 cells at 1 to 4 uM measured after 24 hrs by Western blot analysis; type: functional, cell-based; conditions: dose 1-4 µM
[3] = tested on: A549; assay: Cytotoxicity against human A549 cells assessed as reduction in cell viability by CCK8 assay; type: functional, cell-based
[4] = tested on: MDA-MB-231; assay: Induction of cell cycle arrest in human MDA-MB-231 cells assessed as accumulation of cells at sub-G1 phase at 2 uM incubated for 24 hrs by propidium iodide staining based flow cytometry analysis (reference value: 0.57%); type: functional
[5] = Toxicity in BALB/c mouse xenografted with human MDA-MB-231 cells assessed as effect on heart at 5 mg/kg, ip administered every other day for 20 days and measured every 4 days; type: organism-based; conditions: in vivo, 480 h, time 20 day
[6] = tested on: MDA-MB-231; assay: Antitumor activity against human MDA-MB-231 cells xenografted in BALB/c nude mouse assessed as reduction in tumor volume at 5 mg/kg, ip administered every other day for 20 days and measured every 4 days; type: functional, organism-based; conditions: time 20.0 day
[7] = tested on: Quadruplex DNA; assay: Stabilization of c-MYC G4 quadruplex DNA HRAS (unknown origin) assessed as change in temperature at which 50% protein unfold by circular dichroism melting assay
[8] = tested on: MDA-MB-231; assay: Induction of cell cycle arrest in human MDA-MB-231 cells assessed as downregulation of cyclin B expression at 1 to 4 uM incubated for 24 hrs by Western blot analysis; type: functional, cell-based; conditions: dose 1-4 µM
[9] = Toxicity in BALB/c mouse xenografted with human MDA-MB-231 cells assessed as effect on spleen at 5 mg/kg, ip administered every other day for 20 days and measured every 4 days; type: organism-based; conditions: in vivo, 480 h, time 20 day
[10] = tested on: Quadruplex DNA; assay: Stabilization of c-MYC G4 quadruplex DNA (unknown origin) assessed as change in temperature incubated for 2 hrs in presence of KRAS by FRET assay; type: nucleic-acid assay
[11] = tested on: MDA-MB-231; assay: Induction of cell cycle arrest in human MDA-MB-231 cells assessed as accumulation of cells at G0/G1 phase at 1 uM incubated for 24 hrs by propidium iodide staining based flow cytometry analysis (reference value: 66.35%); type: functional
[12] = tested on: Quadruplex DNA; assay: Stabilization of c-MYC G4 quadruplex DNA (unknown origin) assessed as change in temperature incubated for 2 hrs in presence of duplex DNA by FRET assay; type: nucleic-acid assay
[13] = tested on: MDA-MB-231; assay: Induction of cell cycle arrest in human MDA-MB-231 cells assessed as accumulation of cells at S phase at 1 uM incubated for 24 hrs by propidium iodide staining based flow cytometry analysis (reference value: 15.50%); type: functional
[14] = tested on: Quadruplex DNA; assay: Stabilization of c-MYC G4 quadruplex DNA (unknown origin) assessed as change in temperature incubated for 2 hrs in presence of telomer by FRET assay; type: nucleic-acid assay
[15] = tested on: MDA-MB-231; assay: Cytotoxicity against human MDA-MB-231 cells assessed as reduction in cell viability at 0 to 20 uM by CCK-8 assay; type: functional, cell-based; conditions: dose 0-20 µM, time 24-72 hrs, TDE = time-dependent effect
[16] = Toxicity in BALB/c mouse xenografted with human MDA-MB-231 cells assessed as distress at 5 mg/kg, ip administered every other day for 20 days and measured every 4 days; type: organism-based; conditions: in vivo, 480 h, time 20 day
[17] = Cytotoxicity against human MCF-10A cells assessed as reduction in cell viability by CCK8 assay; type: toxicity, cell-based
[18] = tested on: Quadruplex DNA; assay: Stabilization of c-MYC G4 quadruplex DNA KRAS (unknown origin) assessed as shift in temperature at which 50% protein unfold by circular dichroism melting assay
[19] = tested on: MDA-MB-231; assay: Antitumor activity against human MDA-MB-231 cells xenografted in BALB/c nude mouse assessed as reduction in tumor weight at 5 mg/kg, ip administered every other day for 20 days and measured every 4 days; type: functional, organism-based; conditions: time 20.0 day
[20] = tested on: MDA-MB-231; assay: Induction of apoptosis in human MDA-MB-231 cells assessed as caspase-3 cleavage at 1 to 4 uM incubated for 24 hrs by Western blot analysis; type: functional, cell-based; conditions: dose 1-4 µM
[21] = tested on: MDA-MB-231; assay: Induction of DNA damage in human MDA-MB-231 cells assessed as increase in gamma-H2AX fluorescence intensity at 4 uM measured after 24 hrs by immunofluorescence analysis; type: functional, cell-based
[22] = tested on: MDA-MB-231; assay: Antitumor activity against human MDA-MB-231 cells xenografted in BALB/c mouse assessed as reduction in c-MYC expression at 5 mg/kg, ip administered every other day for 20 days and measured every 4 days by immunohistochemistry analysis; type: functional, organism-based; conditions: time 20.0 day
[23] = Toxicity in BALB/c mouse xenografted with human MDA-MB-231 cells assessed as effect on kidney at 5 mg/kg, ip administered every other day for 20 days and measured every 4 days; type: organism-based; conditions: in vivo, 480 h, time 20 day
[24] = tested on: MDA-MB-231; assay: Induction of apoptosis in human MDA-MB-231 cells assessed as increase in late apoptotic cells at 1 to 4 uM incubated for 24 hrs by Annexin-V FITC/PI double staining based flow cytometry analysis; type: functional, cell-based; conditions: dose 1-4 µM
[25] = tested on: MDA-MB-231; assay: Induction of apoptosis in human MDA-MB-231 cells assessed as caspase-9 cleavage at 1 to 4 uM incubated for 24 hrs by Western blot analysis; type: functional, cell-based; conditions: dose 1-4 µM
[26] = tested on: MDA-MB-231; assay: Induction of autophagy in human MDA-MB-231 cells assessed as aggregation of p62 protein expression level at 1 to 4 uM incubated for 24 hrs by Western blot analysis; type: functional, cell-based; conditions: dose 1-4 µM
[27] = tested on: MDA-MB-231; assay: Inhibition of cell migration in human MDA-MB-231 cells assessed as reduction in migration at 1 to 4 uM measured after 24 to 48 hrs by wound healing assay; type: functional, cell-based; conditions: dose 1-4 µM, time 24-48 hrs
[28] = tested on: MDA-MB-231; assay: Induction of cell cycle arrest in human MDA-MB-231 cells assessed as accumulation of cells at G0/G1 phase at 4 uM incubated for 24 hrs by propidium iodide staining based flow cytometry analysis (reference value: 66.35%); type: functional
[29] = tested on: MDA-MB-231; assay: Upregulation of phosphorylated Chk2 in human MDA-MB-231 cells at 1 to 4 uM measured after 24 hrs by Western blot analysis; type: functional, cell-based; conditions: dose 1-4 µM
[30] = Toxicity in BALB/c mouse xenografted with human MDA-MB-231 cells assessed as effect on lung at 5 mg/kg, ip administered every other day for 20 days and measured every 4 days; type: organism-based; conditions: in vivo, 480 h, time 20 day
[31] = tested on: MDA-MB-231; assay: Induction of cell cycle arrest in human MDA-MB-231 cells assessed as accumulation of cells at S phase at 2 uM incubated for 24 hrs by propidium iodide staining based flow cytometry analysis (reference value: 15.50%); type: functional
[32] = tested on: MDA-MB-231; assay: Induction of autophagy in human MDA-MB-231 cells assessed as conversion of LC3B-I to LC3B-II at 1 to 4 uM incubated for 24 hrs by Western blot analysis; type: functional, cell-based; conditions: dose 1-4 µM
[33] = Toxicity in BALB/c mouse xenografted with human MDA-MB-231 cells assessed as discomfort at 5 mg/kg, ip administered every other day for 20 days and measured every 4 days; type: organism-based; conditions: in vivo, 480 h, time 20 day
[34] = Toxicity in BALB/c mouse xenografted with human MDA-MB-231 cells assessed as effect on body weight at 5 mg/kg, ip administered every other day for 20 days and measured every 4 days; type: organism-based; conditions: in vivo, 480 h, time 20 day
[35] = tested on: MDA-MB-231; assay: Cytotoxicity against human MDA-MB-231 cells assessed as reduction in cell viability by CCK8 assay; type: functional, cell-based

- ΔTm [7]: 7.1 °C
- Activity [10]: Active
- Activity [12]: Active
- Activity [14]: Active
- ΔTm [18]: 11.2 °C
SMILES: CN1CCN(c2ccc(-c3nc(-c4ccc(-c5ccc(C(F)(F)F)cc5)cc4)[nH]c3-c3ccc(N4CCN(C)CC4)cc3)cc2)CC1
- inhibition [1]: Active
- Activity [2]: Active
- IC50 [3]: 1260 nM
- Activity [4]: 0.68%
- Activity [5]: Non-Toxic
- Activity [6]: Active
- Activity [8]: Active
- Activity [9]: Non-Toxic
- Activity [11]: 74.71%
- Activity [13]: 11.14%
- Activity [15]: Tde
- Activity [16]: Non-Toxic
- IC50 [17]: 8770 nM
- Activity [19]: Active
- Activity [20]: Active
- Activity [21]: Active
- Activity [22]: Active
- Activity [23]: Non-Toxic
- Activity [24]: Active
- Activity [25]: Active
- Activity [26]: Active
- inhibition [27]: Active
- Activity [28]: 18.23%
- Activity [29]: Active
- Activity [30]: Non-Toxic
- Activity [31]: 11.56%
- Activity [32]: Active
- Activity [33]: Non-Toxic
- Activity [34]: Non-Toxic
- IC50 [35]: 1840 nM
